Laboratory results published in patent publication US4229435A, “Preparation of blood fraction” (priority 1978, dated 1980).

What was measured:
F VIII = target: T1, F VIII (Homo sapiens, UniProt P00451); experiment: Coagulation factor VIII activity in plasma after reducing agent + iodoacetic acid; format: biochemical; conditions: 5 min 37° C., then iodoacetic acid
T1 construct: from tissue; host or cells: human citrated blood plasma
T1 sequence (P00451 20-1332 limits assumed): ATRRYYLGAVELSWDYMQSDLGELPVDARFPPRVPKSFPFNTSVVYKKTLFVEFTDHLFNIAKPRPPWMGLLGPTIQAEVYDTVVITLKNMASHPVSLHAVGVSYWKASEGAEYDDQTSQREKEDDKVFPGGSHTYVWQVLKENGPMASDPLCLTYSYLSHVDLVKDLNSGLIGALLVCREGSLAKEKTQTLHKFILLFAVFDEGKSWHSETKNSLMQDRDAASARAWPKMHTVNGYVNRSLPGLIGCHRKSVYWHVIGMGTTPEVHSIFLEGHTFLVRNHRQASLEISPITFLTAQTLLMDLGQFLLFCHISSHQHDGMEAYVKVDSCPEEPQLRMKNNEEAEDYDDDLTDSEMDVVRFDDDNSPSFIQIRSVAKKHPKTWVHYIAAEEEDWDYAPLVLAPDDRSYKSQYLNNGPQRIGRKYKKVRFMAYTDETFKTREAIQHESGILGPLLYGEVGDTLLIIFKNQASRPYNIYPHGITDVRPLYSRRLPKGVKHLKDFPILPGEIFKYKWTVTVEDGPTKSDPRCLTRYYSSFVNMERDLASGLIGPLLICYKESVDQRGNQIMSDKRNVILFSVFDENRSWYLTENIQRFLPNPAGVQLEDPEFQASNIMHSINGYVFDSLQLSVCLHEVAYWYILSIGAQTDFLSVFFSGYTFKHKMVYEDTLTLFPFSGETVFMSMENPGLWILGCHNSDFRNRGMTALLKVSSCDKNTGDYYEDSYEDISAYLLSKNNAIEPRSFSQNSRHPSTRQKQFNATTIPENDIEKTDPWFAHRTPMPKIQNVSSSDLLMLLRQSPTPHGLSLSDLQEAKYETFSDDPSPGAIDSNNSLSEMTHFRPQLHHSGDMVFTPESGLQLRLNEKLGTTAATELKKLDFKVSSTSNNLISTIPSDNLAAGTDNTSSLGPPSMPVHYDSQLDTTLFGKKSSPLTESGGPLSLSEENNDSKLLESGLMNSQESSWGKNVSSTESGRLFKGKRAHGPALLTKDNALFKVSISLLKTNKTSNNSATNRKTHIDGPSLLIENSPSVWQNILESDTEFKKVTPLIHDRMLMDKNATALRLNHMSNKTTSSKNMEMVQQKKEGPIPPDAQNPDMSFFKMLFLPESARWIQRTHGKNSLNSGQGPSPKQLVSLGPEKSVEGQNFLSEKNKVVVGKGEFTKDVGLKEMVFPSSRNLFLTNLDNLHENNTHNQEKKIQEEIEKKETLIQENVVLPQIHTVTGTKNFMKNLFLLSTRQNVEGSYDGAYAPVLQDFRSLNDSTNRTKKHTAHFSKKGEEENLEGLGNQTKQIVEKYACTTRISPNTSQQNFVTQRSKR
T1 sequence (P00451 1668-2351 limits assumed): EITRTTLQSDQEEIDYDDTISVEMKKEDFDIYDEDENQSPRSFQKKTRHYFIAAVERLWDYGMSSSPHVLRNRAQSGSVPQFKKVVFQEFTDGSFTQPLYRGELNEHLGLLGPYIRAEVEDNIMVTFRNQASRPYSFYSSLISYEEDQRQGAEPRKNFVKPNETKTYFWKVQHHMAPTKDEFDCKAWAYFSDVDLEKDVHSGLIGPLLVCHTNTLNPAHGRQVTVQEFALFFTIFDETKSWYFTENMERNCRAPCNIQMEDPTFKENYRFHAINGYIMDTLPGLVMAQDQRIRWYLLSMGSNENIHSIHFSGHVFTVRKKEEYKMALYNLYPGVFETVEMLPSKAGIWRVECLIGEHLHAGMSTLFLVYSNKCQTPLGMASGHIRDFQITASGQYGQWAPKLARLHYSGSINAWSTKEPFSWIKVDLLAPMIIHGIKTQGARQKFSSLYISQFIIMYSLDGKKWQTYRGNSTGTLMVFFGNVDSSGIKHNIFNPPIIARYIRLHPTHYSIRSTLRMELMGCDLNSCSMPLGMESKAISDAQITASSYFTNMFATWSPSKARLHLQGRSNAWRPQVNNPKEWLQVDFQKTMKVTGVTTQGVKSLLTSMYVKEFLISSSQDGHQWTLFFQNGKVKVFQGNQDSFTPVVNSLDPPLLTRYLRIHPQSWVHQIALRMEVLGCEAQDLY
Procedure: Human blood with anti-coagulating agent (9 parts blood+1 part 3.8% trisodium citrate) is centrifuged and the following tests with plasma were carried out:
The plasma is divided into 8 ml portions, which are preheated at 37° C. for 5 min. DTT is added in different concentrations, see table 1 below, and is incubated for 5 min. at 37° C. Then iodoacetic acid, 3 mol per mol DTT, is added, and incubation takes place for 15 min. at 37° C. The plasma samples are distributed in portions of about 0.2 ml and are immediately frozen at -70° C. Testing of different coagulation factors is made in known manner.
(§1) The plasma is divided into 8 ml portions, which are preheated at 37° C. for 5 min. DTE is added in different concentrations (see table 2), and is incubated for 5 minutes at 37° C. Then, iodoacetic acid (3 mol per mol DTE) is added and incubation is carried out for 15 minutes at 37° C. The plasma samples are distributed in portions of about 0.2 ml and are immediately frozen at -70° C. Testing of different coagulation factors is made in a manner known per se.
as §1, with “minutes. Lipoic acid” for “min. DTE”, “3),” for “2),”, “lipoic acid)” for “DTE)”
as §1, with “minutes. Mercaptoethanol” for “min. DTE”, “4),” for “2),”, “mercaptoethanol)” for “DTE)”
as §1, with “minutes. Potassium borohydride” for “min. DTE”, “5,” for “2),”, “potassium borohydride)” for “DTE)”

[1] = tested on: coagulation factors VII, IX, X, XI and XII; experiment: Effect of reducing substance added to blood or plasma on coagulation factors; format: biochemical; conditions: addition to blood
[2] = human, 0.1 mg reducing agent/ml plasma (sample C)

Row | activity at 100 µg/mL (F VIII; [2]) | Coagulation factor F VIII (F VIII; plasma + 0.2 mg reducing agent) | Coagulation factor F VIII (F VIII; plasma + 0.4 mg reducing agent) | activity at 600 µg/mL (F VIII; human, 0.6 mg reducing agent/ml plasma) | activity at 100 µg/mL (F VIII; human, Table 1 sample D, 0.1 mg DTT/ml plasma) | Coagulation factor F VIII (F VIII; plasma + 0.14 mg reducing agent) | Coagulation factor F VIII (F VIII; plasma + 0.28 mg reducing agent) | Structure (SMILES) | content of coagulation factors VII, IX, X, XI and XII in the resulting plasma [1]
1 | 108% | 116 % of control | 93 % of control | – | – | – | – | O[C@H](CS)[C@@H](O)CS [DTE, dithioerythritol] | –
2 | 107% | – | 52 % of control | 27% | 86% | – | – | O[C@H](CS)[C@H](O)CS [DTT, dithiothreitol] | reduces the content of the coagulation factors VII, IX, X, XI and XII to a large extent
3 | – | – | – | – | – | 122 % of control | 105 % of control | [BH4-].[K+] [KBH4, potassium borohydride] | –
4 | 111% | 98 % of control | 111 % of control | – | – | – | – | O=C(O)CCCCC1CCSS1 (stereo not drawn) [lipoic acid] | –
5 | – | 98 % of control | 85 % of control | – | – | – | – | OCCS [mercaptoethanol] | –
